In assay [1] the target is T1, cyclooxygenase derived from rat basophilic leukemia (RBL-1) cells (Rattus norvegicus, UniProt Q63921).
T1 construct: Single cell suspensions of RBL-1 cells are homogenized to obtain the microsomal fraction containing lipoxygenase and cyclooxygenase; endogenous in cells; host or cells: RBL-1 (rat basophilic leukemia) cells, homogenate/microsomal fraction
T1 sequence (Q63921 27-602): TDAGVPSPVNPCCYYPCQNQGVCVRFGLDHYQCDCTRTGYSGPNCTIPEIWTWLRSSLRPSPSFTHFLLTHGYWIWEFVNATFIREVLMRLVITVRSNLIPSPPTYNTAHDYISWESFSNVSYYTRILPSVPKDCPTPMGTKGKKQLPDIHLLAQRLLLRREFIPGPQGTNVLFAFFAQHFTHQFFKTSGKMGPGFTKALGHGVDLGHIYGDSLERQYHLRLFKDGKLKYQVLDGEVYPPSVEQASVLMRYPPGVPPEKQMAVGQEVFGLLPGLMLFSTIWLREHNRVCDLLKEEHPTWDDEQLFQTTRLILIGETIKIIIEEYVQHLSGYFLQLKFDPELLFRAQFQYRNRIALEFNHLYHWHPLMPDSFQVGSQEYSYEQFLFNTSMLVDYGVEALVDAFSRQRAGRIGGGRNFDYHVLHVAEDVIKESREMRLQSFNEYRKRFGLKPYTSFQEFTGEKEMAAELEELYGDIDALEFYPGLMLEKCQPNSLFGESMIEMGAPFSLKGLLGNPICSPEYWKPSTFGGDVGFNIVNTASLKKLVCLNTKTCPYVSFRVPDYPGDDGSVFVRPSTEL
The assay is described as follows: % inhibition of formation of cyclooxygenase product prostaglandin D2 (C1) in RBL-1 microsomal homogenate. Format: biochemical. On the set-up: inhibition: dose or concentration left out as unconfirmed. As to conditions: read-out: % Inhibition in vitro, C1 (prostaglandin D2). Here is the method: (§1) The primary screening test used is a determination of the inhibition of lipoxygenase and cyclooxygenase derived from rat basophilic leukemia (RBL-1) cells. The test was carried out according to the following procedure:
(§2) Single cell suspensions of RBL-1 cells are homogenized to obtain the microsomal fraction containing lipoxygenase and cyclooxygenase. Test compounds are added to the enzyme-containing homogenate for a 5 min. preincubation period at 37° C. prior to the addition of ^14 C-arachidonic acid substrate. Following incubation at 37° C. for 15 min., the reaction is stopped by the addition of 2M formic acid and the enzyme-substrate products are extracted into chloroform. An aliquot of the extract is evaporated to dryness, reconstituted in ether to 1/10 original volume, spotted on thin layer chromatography plates and chromatographed. The peak areas of radioactivity representing the products are located by scanning the plates. The quantity of products formed is estimated by measuring the height of the radioactivity peaks observed on the chromatographic scans. Alternatively, the areas of radioactivity are scraped from the plate and the ^14 C quantitated by scintillation counting. The percent inhibition in the formation of the cyclooxygenase product prostaglandin D2, designated as C1, and lipoxygenase products 5,12-di-HETE and 5-HETE, designated L1 and L2 respectively, are shown. Compounds with >50% inhibition of L1 and L2 at a screening concentration of 1 μM are considered active.

The target in assay [2] is T2, lipoxygenase derived from rat basophilic leukemia (RBL-1) cells (Rattus norvegicus, UniProt P12527).
T2 construct: Single cell suspensions of RBL-1 cells are homogenized to obtain the microsomal fraction containing lipoxygenase and cyclooxygenase; endogenous in cells; host or cells: RBL-1 (rat basophilic leukemia) cells, homogenate/microsomal fraction
T2 sequence (P12527 1-673): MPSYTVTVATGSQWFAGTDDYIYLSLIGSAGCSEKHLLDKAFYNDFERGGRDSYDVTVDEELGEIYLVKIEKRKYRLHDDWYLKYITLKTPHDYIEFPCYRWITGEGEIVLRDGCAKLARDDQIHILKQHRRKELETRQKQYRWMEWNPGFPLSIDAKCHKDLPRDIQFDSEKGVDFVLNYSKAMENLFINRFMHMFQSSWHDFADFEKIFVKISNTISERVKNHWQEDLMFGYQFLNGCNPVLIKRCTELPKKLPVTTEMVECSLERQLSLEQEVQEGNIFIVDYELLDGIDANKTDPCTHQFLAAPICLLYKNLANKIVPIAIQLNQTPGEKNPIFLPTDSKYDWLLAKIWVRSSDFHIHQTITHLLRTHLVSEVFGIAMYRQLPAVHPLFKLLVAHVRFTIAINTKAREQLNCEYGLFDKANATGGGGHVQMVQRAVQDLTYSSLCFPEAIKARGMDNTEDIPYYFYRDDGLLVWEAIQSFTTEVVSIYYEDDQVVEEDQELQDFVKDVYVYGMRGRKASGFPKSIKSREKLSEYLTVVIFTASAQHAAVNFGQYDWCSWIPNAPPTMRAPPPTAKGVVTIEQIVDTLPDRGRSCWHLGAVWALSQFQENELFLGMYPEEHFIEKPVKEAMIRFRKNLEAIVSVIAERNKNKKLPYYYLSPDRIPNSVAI
The assay is described as follows: % inhibition of formation of lipoxygenase products 5,12-di-HETE (L1) and 5-HETE (L2) in RBL-1 microsomal homogenate. Format: biochemical. On the set-up: inhibition: dose or concentration left out as unconfirmed. Here is the method:
as §1, §2

For assay [3], the system named is SRS-A component of immunologically induced bronchoconstriction. The assay can be described thus: effect on the SRS-A component of immunologically induced bronchoconstriction in guinea pigs. Format: in vivo. The settings on record: guinea pig. Here is the method: The test was carried out according to the following procedure: Outbred female guinea pigs were sensitized to egg albumin by a 1 mL ip injection of a 1 mg/mL egg albumin alum suspension. Twelve to sixteen days after immunization, the animals were used for the test. They were anesthetized with urethane (1.5 gm/kg ip) and surgically prepared with a jugular vein canula connected to a three-way stopcock for administration of drugs and antigen challenge. The trachea was cannulated and the animal artifically respired. The intratracheal pressure was continuously recorded and expressed in mm Hg. Naproxen sodium (10 mg/kg) and pyrilamine maleate (0.3 mg/kg) in phosphate buffered saline, pH 7.2, were administered intravenously in a single solution seven minutes prior to antigen challenge. Propranolol (0.1 mg/kg) was also given iv three minutes prior to challenge with egg albumin (300 μg/kg iv). The animals were dosed orally with compounds in water or in a vehicle of 3% corn starch, 5% polyethylene glycol 400, and 0.34% Tween 8™ in water at one or four hours before challenge. Results were recorded as the maximum increase in intratracheal pressure following antigen challenge. Activity of the compounds was measured as percent inhibition of the mean peak intratracheal pressure in the group of dosed animals in comparison to the mean peak intratracheal pressure in the group of vehicle treated animals. The results are expressed in terms of % inhibition.

The mark [4] stands for this setting: 0.25 h, line carries a superscript without letter (probably footnote a, 0.1 μM).
[5] abbreviates: 0.25 h, line carries a superscript without letter (probably footnote a, 0.1 μM), read-out: % Inhibition in vitro, L1 (5,12-di-HETE).
[6] abbreviates: 0.25 h, line carries a superscript without letter (probably footnote a, 0.1 μM), read-out: % Inhibition in vitro, L2 (5-HETE).
Setting [7] is: read-out: % Inhibition in vitro, L1 (5,12-di-HETE).
Where [8] appears, read: read-out: % Inhibition in vitro, L2 (5-HETE).
Setting [9] is: 100 mg/kg p.o., at 1 hour before challenge.
[10] abbreviates: 100 mg/kg p.o., at 4 hours before challenge.

Each structure is given as a SMILES string. Where a name gives a salt, the structure may show the parent alone. Read-outs that look alike come from different tables or passages of the source.

In general, inhibition refers to how much of the control response was suppressed. For the molecule `N#CCCCCNc1ccc(O)cc1` [Example 1c, 5-[(4-Hydroxyphenyl)amino]pentanenitrile], the inhibition at 1 µM was determined as 0% in assay [1] (setting [4]), 100% in assay [2] (setting [5]) and 100% in assay [2] (setting [6]).
Regarding `N#CCCCCCCNc1ccc(O)cc1` [Example 2d, 7-[(4-Hydroxyphenyl)amino]heptanenitrile], the inhibition at 1 µM in assay [1] turned out to be 42%; in assay [2] (setting [7]) it was 92%; in assay [2] (setting [8]) it was 98%. Further, the “% Inhibition in vivo (mean peak intratracheal pressure)” value (from here on “% Inhibition in vivo”) turned out to be 66% in assay [3] (setting [9]) and 61% in assay [3] (setting [10]).
For `Cl.N#CCCCCCCNc1ccccc1O` [Example 3c, 7-[(2-Hydroxyphenyl)amino]heptanenitrile monohydrochloride], the results for the inhibition in assay [1] and in assay [2] (setting [8]) were 0% and 100%, respectively. Moreover, the “% Inhibition in vivo” value came to 4% in assay [3] (setting [9]) and 11% in assay [3] (setting [10]).
`N#CCCCCCCCNc1ccc(O)cc1.O=C(O)/C=C\C(=O)O` [Example 4c, 8-[(4-Hydroxyphenyl)amino]octanenitrile (Z)-2-butenedioate]: the inhibition at 1 µM was found to be 0% in assay [1] (setting [4]), 100% in assay [2] (setting [5]) and 100% in assay [2] (setting [6]). In addition, the “% Inhibition in vivo” value in assay [3] (setting [9]) was 17%; in assay [3] (setting [10]), 76%.
With `N#CCCCCCCCCNc1ccc(O)cc1.O=C(O)/C=C\C(=O)O` [Example 5c, 9-[(4-Hydroxyphenyl)amino]nonanenitrile (Z)-2-butenedioate], the inhibition in assay [1] turned out to be 0%; in assay [2] (setting [7]), 82%; in assay [2] (setting [8]), 95%. Further, the “% Inhibition in vivo” value in assay [3] (setting [9]) was found to be 0%; in assay [3] (setting [10]) it was 25%.
Regarding `CN(CCCCCCC#N)c1ccc(O)cc1` [Example 6c], the results for the inhibition at 1 µM in assay [1] (setting [4]), in assay [2] (setting [5]) and in assay [2] (setting [6]) were 28%, 100% and 100%, respectively. Also, in assay [3] (setting [9]), the “% Inhibition in vivo” value is reported as 6%.
On to `CC(=O)Oc1ccc(N(C)CCCCCCC#N)cc1` [Example 6d, 7-[[4-(Acetyloxy)phenyl]methylamino]heptanenitrile], for which the inhibition in assay [1] was found to be 14%; in assay [2] (setting [7]) it was 91%; in assay [2] (setting [8]), 85%.
Regarding `Cc1cc(O)ccc1NCCCCCCC#N.Cl` [Example 7c, 7-[(4-Hydroxy-2-methylphenyl)amino]heptanenitrile monohydrochloride], the values for the inhibition in assay [1] and in assay [2] (setting [8]) were 0% and 65%, respectively. The “% Inhibition in vivo” value stood at 66% in assay [3] (300 mg/kg p.o. (footnote b), at 1 hour before challenge) and 86% in assay [3] (300 mg/kg p.o. (footnote b), at 4 hours before challenge).
`Cc1cc(NCCCCCCC#N)ccc1O` [Example 8c, 7-[(4-Hydroxy-3-methylphenyl)amino]heptanenitrile monohydrochloride]: the inhibition at 1 µM came to 13% in assay [1] (setting [4]), 100% in assay [2] (setting [5]) and 100% in assay [2] (setting [6]).
Consider `N#CCCCCCCNc1cc(Cl)c(O)c(Cl)c1` [Example 9c, 7-[(3,5-Dichloro-4-hydroxyphenyl)amino]heptanenitrile monohydrochloride], for which the results for the inhibition in assay [1] and in assay [2] (setting [8]) were 9% and 95%, respectively.
In the case of `N#CCCCCCCNc1ccc(O)c(CO)c1` [Example 10c, 7-[[4-Hydroxy-3-(hydroxymethyl)phenyl]amino]heptanenitrile monohydrochloride], the inhibition at 1 µM in assay [1] (setting [4]) amounted to 10%; in assay [2] (setting [5]), 100%; in assay [2] (setting [6]), 100%.
In the case of `Cl.N#CCCCCCCNc1ccc(O)cc1F` [Example 11c, 7-[(2-Fluoro-4-hydroxyphenyl)amino]heptanenitrile monohydrochloride], the inhibition in assay [1] came to 22%; in assay [2] (setting [7]), 86%; in assay [2] (setting [8]), 93%. The “% Inhibition in vivo” value in assay [3] (setting [9]) amounted to 7%; in assay [3] (setting [10]), 30%.

These data come from patent publication US4835180A, “N-(ω-cyanoalkyl)aminophenols and use as inhibitors of lipoxygenase activity” (Sterling Drug Inc., priority 1986, dated 1989).
